Experimental findings from US8735391B2, “Synthesis of functionalized octahydro-isoquinolin-1-one-8-carboxamides, octahydro-isoquinolin-1-one-8-carboxylic esters and analogs, and therapeutic methods” (University of Kansas, priority 2008, dated 2014) are described below.

Where two headings read alike, the source gives them in different places.

In test [1] the target is T1, KOR (Homo sapiens, UniProt P41145). In words: Opioid secondary binding, KOR (Tables 4, 5, 8, 9).
The target of another test is MOR (Homo sapiens, UniProt P35372). Kind of test: Opioid secondary binding, MOR (Tables 4, 5, 8).
Chain of MOR (P35372 whole entry): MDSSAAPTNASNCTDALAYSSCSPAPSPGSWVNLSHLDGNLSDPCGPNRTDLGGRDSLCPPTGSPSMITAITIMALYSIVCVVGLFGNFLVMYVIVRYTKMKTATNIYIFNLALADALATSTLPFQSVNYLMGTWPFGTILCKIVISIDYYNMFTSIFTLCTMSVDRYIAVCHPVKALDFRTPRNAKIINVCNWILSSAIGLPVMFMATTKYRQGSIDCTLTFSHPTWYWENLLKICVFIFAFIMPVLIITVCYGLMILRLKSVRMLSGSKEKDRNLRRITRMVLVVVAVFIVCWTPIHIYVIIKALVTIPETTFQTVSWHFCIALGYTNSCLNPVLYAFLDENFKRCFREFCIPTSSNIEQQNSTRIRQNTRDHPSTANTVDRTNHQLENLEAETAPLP
In test [2] the target is T1, KOR. In words: [35S]GTPγS binding functional agonist assay on membranes of CHO cells expressing hKOR (reference agonist U69593). The conditions noted are these: for Emax: read-out: Emax values relative to U69593; for Emax values relative to U69593: [35S]GTPγS data-fit top relative to reference agonist U69593; for KOR agonist (average percent efficacy relative to cognate agonist): test compound at 10 micromolar, N=4, reference agonist = 100%, CHO-cell line expressing hKOR. It is filed as biochemical. Also on record: expressed in transfected cells; host or cells: CHO cells, stably transfected; crude membrane fractions. The method, then: The compounds prepared herein were tested for bioactivity with opioid receptors. Agonist assays: Data represent the percent efficacy (relative to cognate agonist) of the test compound at 10 micromolar. The response to a saturating concentration of a reference antagonist or to vehicle (usually none or negligible) is set to 0%. […] The response inhibition elicited by a saturating concentration of reference antagonist is set to 100%; the response inhibition (usually none or negligible) elicited by vehicle is set to 0%. The following tables provide data related to the bioactivity for opioid receptors of the compounds described herein.
Table 6 provides data that represent the average percent efficacy (N=4; relative to cognate agonist) of the test compound at 10 micromolar concentration. The response to a saturating concentration of cognate/reference agonist is set to 100%; the response to a saturating concentration of a reference antagonist or to vehicle (usually none or negligible) is set to 0%. All functional assays are performed on stably transfected CHO-cell lines expressing hKOR, hMOR or hDOR.
(§1) Serial dilutions of the test and reference compounds are made in binding buffer at 2× assay concentration (final assay concentrations ranging from 0.1 nM to 10 μM). Crude membrane fractions (1.8 to 3.5 cm2/well) (prepared from 10-cm plates by harvesting PBS-rinsed monolayers, resuspending and lysing in chilled, hypotonic 50 mM Tris-HCl, pH 7.4, centrifuging at 20,000×g, decanting the supernatant and storing at −80 degrees centigrade; typically, one 10-cm plate provides sufficient material for 24 wells) are resuspended in 1.2 ml of assay buffer containing 20 μM GDP, wheat germ agglutinin (WGA)-coated scintillation proximity beads (2.4 mg), and [35S]GTPγS (300 pM final). The suspension is then added (50 μl/well) to 50 μl of the 2× test or reference compounds (each concentration assayed in triplicate) in flexible transparent PET 96-well plates. The reaction plate is sealed and incubated for 90 min at room temperature, then centrifuged for 5 min at 216×g, and finally loaded into a Wallac MicroBeta TriLux counter. Non-specific [35S]GTPγS binding is assessed at the maximum concentration of reference agonist in the presence of 10 μM antagonist. The background signal is measured at 10 μM reference agonist in the presence of 10 μM unlabeled GTPγS. Raw data (dpm) representing total [35S]GTPγS binding (i.e., specific+non-specific binding) are calculated as a percentage of the maximum response by the reference agonist (in this case U69593).
as §1, with “GTPγS.” for “GTPγS. Raw data (dpm) representing total [35S]GTPγS binding (i.e., specific+non-specific binding) are calculated as a percentage of the maximum response by the reference agonist (in this case U69593).”

Another test deals with DOR (Homo sapiens, UniProt P41143). In words: Opioid secondary binding, DOR (Table 4). The conditions noted are these: Opioid secondary binding activity for Formula 10 analogs.
Chain of DOR (P41143 whole entry): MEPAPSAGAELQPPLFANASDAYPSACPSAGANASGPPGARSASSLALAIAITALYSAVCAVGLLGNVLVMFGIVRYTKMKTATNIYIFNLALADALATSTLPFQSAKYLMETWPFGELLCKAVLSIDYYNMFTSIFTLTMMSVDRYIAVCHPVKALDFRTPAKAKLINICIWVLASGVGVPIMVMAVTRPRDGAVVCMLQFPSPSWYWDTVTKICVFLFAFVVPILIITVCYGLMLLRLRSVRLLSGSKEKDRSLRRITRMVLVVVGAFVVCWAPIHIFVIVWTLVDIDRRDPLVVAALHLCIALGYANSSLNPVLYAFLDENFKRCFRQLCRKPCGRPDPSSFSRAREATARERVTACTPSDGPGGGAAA
Setting [3] is: Opioid secondary binding activity for Formula 10 analogs, read-out: KOR, Ki.
[4] abbreviates: Opioid secondary binding activity for Formula 10 analogs, read-out: MOR, Ki.

T1 sequence (P41145 whole entry): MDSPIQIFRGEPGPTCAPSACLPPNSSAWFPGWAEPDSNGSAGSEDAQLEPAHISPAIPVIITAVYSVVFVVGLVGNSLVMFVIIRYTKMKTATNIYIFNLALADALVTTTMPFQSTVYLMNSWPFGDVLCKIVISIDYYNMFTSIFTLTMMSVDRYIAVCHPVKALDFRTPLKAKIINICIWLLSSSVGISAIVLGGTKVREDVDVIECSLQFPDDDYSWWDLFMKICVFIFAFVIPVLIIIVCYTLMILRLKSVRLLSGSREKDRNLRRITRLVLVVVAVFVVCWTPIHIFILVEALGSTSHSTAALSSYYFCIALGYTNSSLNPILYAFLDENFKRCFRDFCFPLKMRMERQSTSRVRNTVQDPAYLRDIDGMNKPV

Consider `O=C(Nc1ccc(Br)c(C(F)(F)F)c1)[C@H]1CC=C[C@H]2CCN(Cc3ccccc3)C(=O)[C@@H]12` [11869*], for which the Ki amounted to 16.5 nM at KOR [1] (setting [3]) and 648 nM at MOR (setting [4]). Further, the Emax at KOR [2] was determined as 68%.

On to `O=C(Nc1ccc(Cl)c(C(F)(F)F)c1)[C@H]1CC=C[C@H]2CCN(Cc3ccccc3)C(=O)[C@@H]12` [compound 11790], for which the Ki at KOR [1] is 3.2 nM; at MOR, 208 nM. Besides, the Emax at KOR [2] was determined as 78%.

Consider `O=C(Nc1ccc(F)c(F)c1)[C@@H]1CC=C[C@@H]2CCN(Cc3ccc(Cl)c(Cl)c3)C(=O)[C@@H]21` (racemic) [compound 5085], for which the Ki at KOR [1] (setting [3]) amounted to 2960 nM; on MOR (setting [4]) it was 4660 nM.

Regarding `Cc1cc(NC(=O)[C@@H]2CC=C[C@@H]3CCN(Cc4ccccc4)C(=O)[C@@H]32)ccc1Cl` (racemic) [compound 11872], the Ki was 86 nM on KOR [1] (setting [3]) and 2180 nM at MOR (setting [4]). In addition, the “Emax values relative to U69593” value on KOR [2] worked out at 123%.

Consider `O=C(NCCc1ccccc1)[C@@H]1CC=C[C@@H]2CCN(Cc3ccccc3)C(=O)[C@@H]21` (racemic) [compound 8916], for which the values for the Ki on KOR [1] (setting [3]) and on MOR (setting [4]) were 561 nM and 4600 nM, respectively. Also, on KOR [2], the “KOR agonist (average percent efficacy relative to cognate agonist)” value is reported as 110.6%.

Consider `O=C(Nc1ccc(Cl)c(C(F)(F)F)c1)[C@@H]1CC=C[C@H]2CCN(Cc3ccccc3)C(=O)[C@H]21` [compound 11795], for which the Ki at KOR [1] came to 158 nM; on MOR (setting [4]), 5420 nM.

As for `O=C(Nc1ccccc1)[C@H]1CC=C[C@H]2CCN(Cc3ccccc3)C(=O)[C@@H]12` [compound 11794], the Ki was 137 nM on KOR [1] (setting [3]) and 1660 nM on MOR (setting [4]).

`COc1ccc(CN2CC[C@H]3C=CC[C@@H](C(=O)Nc4ccc(Cl)cc4Cl)[C@H]3C2=O)cc1OC` (racemic) [compound 8952]: on MOR (setting [4]), the Ki was found to be 5660 nM. Moreover, the “KOR agonist (average percent efficacy relative to cognate agonist)” value at KOR [2] is listed as −2.6%.

In the case of `O=C(Nc1cc(C(F)(F)F)ccc1Cl)C1CC=CC2CCN(C3CCCCC3)C(=O)C21` (racemic) [compound 11837], the figures for the Ki at KOR [1] (setting [3]) and on DOR were 94 nM and 8.02 µM, respectively. Also, the “Emax values relative to U69593” value on KOR [2] was 106%.

In the case of `O=C(OCc1ccccc1)C(Cc1ccccc1)NC(=O)C1CC=CC2CCN(Cc3ccc(Cl)cc3)C(=O)C21` (mixture of isomers) [compound 11813], the figures for the Ki at KOR [1] (setting [3]) and on MOR (setting [4]) were 1160 nM and 1910 nM, respectively.

For `O=C(Nc1cc(C(F)(F)F)ccc1Cl)C1CC=CC2CCN(CCc3ccccc3)C(=O)C21` (racemic) [compound 11849], the Ki at KOR [1] (setting [3]) came out at 1820 nM; at MOR (setting [4]), 2410 nM.

On to `O=C(NCCc1ccccc1)[C@@H]1CC=C[C@@H]2CCN(Cc3ccc(Cl)c(Cl)c3)C(=O)[C@@H]21` (racemic) [compound 5084], for which the figures for the Ki on KOR [1] (setting [3]) and at MOR (setting [4]) were 4800 nM and 5190 nM, respectively.

On to `COc1ccc(NC(=O)[C@@H]2CC=C[C@@H]3CCN(C4CCCCC4)C(=O)[C@@H]32)cc1` (racemic) [compound 8945], for which the Ki on KOR [1] (setting [3]) stood at 1790 nM; on DOR, 5.67 µM. Besides, at KOR [2], the “KOR agonist (average percent efficacy relative to cognate agonist)” value was 54.3%.

As to `O=C(Nc1ccccc1)[C@@H]1CC=C[C@@H]2CCN(C3CCCCC3)C(=O)[C@@H]21` (racemic) [compound 8939], the results for the Ki on KOR [1] (setting [3]) and on DOR were 71 nM and 8.94 µM, respectively. At KOR [2], the “KOR agonist (average percent efficacy relative to cognate agonist)” value came to 133.7%.

In the case of `CCCCN1CC[C@H]2C=CC[C@@H](C(=O)Nc3ccc(Cl)c(C(F)(F)F)c3)[C@H]2C1=O` (racemic) [compound 8956], the figures for the inhibition constant Ki on KOR [1] (setting [3]) and on MOR (setting [4]) were 190 nM and 2220 nM, respectively. For the same molecule, the “KOR agonist (average percent efficacy relative to cognate agonist)” value on KOR [2] is given as 118.7%.

With `O=C(Nc1ccc(Cl)c(C(F)(F)F)c1)[C@@H]1CC=C[C@@H]2CCN(Cc3ccccc3)C(=O)[C@@H]21` (racemic) [compound 8620], the values for the Ki at KOR [1] and on MOR (setting [4]) were 5.3 nM and 3550 nM, respectively. Besides, the Emax at KOR [2] was found to be 67%.

As for `O=C(Nc1ccc(Br)c(C(F)(F)F)c1)[C@@H]1CC=C[C@@H]2CCN(CCc3ccccc3)C(=O)[C@@H]21` (racemic) [compound 11875], the Ki on KOR [1] (setting [3]) was 2280 nM; at MOR (setting [4]), 1180 nM.

In the case of `CCCCN1CC[C@H]2C=CC[C@@H](C(=O)Nc3ccccc3)[C@H]2C1=O` (racemic) [compound 8940], the figures for the Ki on KOR [1] (setting [3]) and at DOR were 677 nM and 6.11 µM, respectively. Also, the “KOR agonist (average percent efficacy relative to cognate agonist)” value on KOR [2] came out at 112.1%.

With `COc1ccc(CNC(=O)[C@@H]2CC=C[C@@H]3CCN(Cc4ccc(Cl)c(Cl)c4)C(=O)[C@@H]32)cc1` (racemic) [compound 8928], the Ki came to 964 nM at KOR [1] (setting [3]) and 7400 nM on MOR (setting [4]). Moreover, on KOR [2], the “KOR agonist (average percent efficacy relative to cognate agonist)” value was 17.7%.

For `O=C(Nc1ccc(Cl)c(C(F)(F)F)c1)[C@@H]1CC=C[C@@H]2CCN(Cc3ccccc3)C(=O)[C@@H]21` [compound 11789], the figures for the Ki at KOR [1] and at MOR were 132 nM and 3480 nM, respectively.

Turning to `O=C(Nc1ccc(Cl)c(C(F)(F)F)c1)C1CCCC2CCN(Cc3ccccc3)C(=O)C21` (racemic) [compound 11478], the Ki was found to be 51 nM at KOR [1] (setting [3]) and 1750 nM on MOR (setting [4]).

Regarding `O=C(NCc1ccc(Cl)c(C(F)(F)F)c1)[C@@H]1CC=C[C@@H]2CCN(Cc3ccccc3)C(=O)[C@@H]21` (racemic) [compound 11868], the Ki came to 455 nM on KOR [1] (setting [3]) and 2160 nM on MOR (setting [4]).

As for `COc1ccc(NC(=O)[C@@H]2CC=C[C@@H]3CCN(Cc4ccc(Cl)c(Cl)c4)C(=O)[C@@H]32)cc1` (racemic) [compound 8947], the Ki is 2560 nM at KOR [1] (setting [3]) and 3490 nM on MOR (setting [4]). Also, at KOR [2], the “KOR agonist (average percent efficacy relative to cognate agonist)” value is 17.3%.

`Cc1cc(NC(=O)[C@@H]2CC=C[C@@H]3CCN(CCc4ccccc4)C(=O)[C@@H]32)ccc1Cl` (racemic) [compound 11878]: the Ki on KOR [1] (setting [3]) was 4120 nM; at MOR (setting [4]), 1670 nM.

As to `COc1ccc(CN2CC[C@H]3C=CC[C@@H](C(=O)Nc4ccc(Cl)c(C(F)(F)F)c4)[C@H]3C2=O)cc1OC` (racemic) [compound 8958], the inhibition constant (Ki) on MOR (setting [4]) was 2540 nM.

In the case of `COc1ccc(NC(=O)[C@@H]2CC=C[C@@H]3CCN(Cc4ccccc4)C(=O)[C@@H]32)cc1` (racemic) [compound 8943], at KOR [1] (setting [3]), the Ki is 883 nM. Moreover, on KOR [2], the “KOR agonist (average percent efficacy relative to cognate agonist)” value amounted to 72.9%.

`O=C(Nc1ccc(Cl)c(C(F)(F)F)c1)[C@@H]1CC=C[C@@H]2CCN(c3ccccc3)C(=O)[C@@H]21` (racemic) [compound 10825]: at KOR [1] (setting [3]), the Ki was determined as 100 nM. Besides, the “Emax values relative to U69593” value at KOR [2] is on record as 82%.

For `O=C(NCc1ccc(Cl)c(C(F)(F)F)c1)[C@@H]1CC=C[C@@H]2CCN(CCc3ccccc3)C(=O)[C@@H]21` (racemic) [compound 11874], the Ki at KOR [1] (setting [3]) was 319 nM; at MOR (setting [4]) it was 1240 nM.

For `O=C(NC1CCCCC1)[C@@H]1CC=C[C@@H]2CCN(C3CCCCC3)C(=O)[C@@H]21` (racemic) [compound 8922], the Ki on KOR [1] (setting [3]) amounted to 167 nM. Moreover, at KOR [2], the “KOR agonist (average percent efficacy relative to cognate agonist)” value came to 8%.
